Source: US20250082763A1, “COMBINATION DRUG FOR TREATING TRIPLE-NEGATIVE BREAST CANCER” (HINOVA PHARMACEUTICALS INC., priority 2022, published 2025)
Like-named read-outs stand apart in the source and are kept apart here. Values belong to the compound of their own block, whether it stands above or below them.

Assays:
Format in all cases: cell-based
[1] = system: SUM159PT; assay: Antiproliferation, CellTiter-Glo, 5 days, SUM159PT; details: AR+ TNBC
Protocol: (§1) Cells were treated with serial dilutions of tested compounds with the maximum working concentration of 10 μM. Cell survival was measured 5 days later using a CellTiter-Glo luminescent cell viability assay kit (Promega Corporation). Luminescence was recorded by FLUOstar Omega microplate reader (BMG Labtech). Half maximal inhibitory concentration (IC50) was determined with GraphPad Prism using baseline correction (by normalizing to dimethyl sulfoxide (DMSO) control)

[2] = system: MDA-MB-453; assay: Antiproliferation, CellTiter-Glo, 5 days, MDA-MB-453; details: MDA-MB-453, AR+ TNBC
Protocol: as §1, with “For MDA-MB-453, MFM-223, SUM159PT, MDA-MB-468, and HCC1937, 4,000, 3,000, 1,000, 3,000, and 3,000 cells were plated per well in 96-well microplates (Corning Inc), respectively. Cells” for “Cells”

[3] = system: MFM-223; assay: Antiproliferation, CellTiter-Glo, 5 days, MFM-223; details: MFM-223, AR+ TNBC
Protocol: as §1, with “For MDA-MB-453, MFM-223, SUM159PT, MDA-MB-468, and HCC1937, 4,000, 3,000, 1,000, 3,000, and 3,000 cells were plated per well in 96-well microplates (Corning Inc), respectively. Cells” for “Cells”

[4] = system: MDA-MB-453 cells; assay: Combination with PI3K inhibitor Alpelisib, proliferation of MDA-MB-453 cells, Combination Index; details: molar ratio to Alpelisib 1:27-9:1, 7 days
Protocol: (§2) Triple negative breast cancer MDA-MB-453 cells in logarithmic growth stage were inoculated into a 96-well plate at a concentration of 4×10^3 cells/well, and then incubated in an incubator at 37° C., 5% CO2, and saturated humidity for 24 h. To the negative control wells, were added RPMI 1640 cell culture medium containing 10% fetal bovine serum in the same volume as the drug. After cultured for 24 h, to the 96-well plate, were sequentially added AR PROTACs compounds 279, 281, 282, ARV-110, ARV-766 and PI3K inhibitor Alpelisib, respectively.
(§3) After addition of the drugs and co-incubation for 7 days, 10 μL of CCK-8 was added to each well, and then the plate was further cultured for 2 h. The absorbance value (OD) of each well was measured using a microplate reader at a wavelength of 450 nm. The survival rate was calculated using Prism software, the relative survival rate=(OD value of drug well/OD value of control well)×100%. Alternatively, 100 μL of medium was removed from each well, and then 50 μL of CTG was added. The plate was shaken in the dark for 2 min, allowed to stand for 10 min, and then measured using a microplate reader in Luminescence mode. Prism software was used to calculate the survival rate, the relative survival rate=(the RLU value of drug well/the RLU value of control well)×100%.

[5] = system: MDA-MB-468; assay: Antiproliferation, CellTiter-Glo, 5 days, MDA-MB-468; details: MDA-MB-468, AR− TNBC
Protocol: as §1, with “For MDA-MB-453, MFM-223, SUM159PT, MDA-MB-468, and HCC1937, 4,000, 3,000, 1,000, 3,000, and 3,000 cells were plated per well in 96-well microplates (Corning Inc), respectively. Cells” for “Cells”

[6] = system: MDA-MB-453 cells; assay: Combination with PI3K inhibitor Idelalisib, proliferation of MDA-MB-453 cells, Combination Index; details: molar ratio to Idelalisib 1:270-1:3.333, 7-10 days
Protocol: as §2, with “Idelalisib,” for “Alpelisib,”
as §3, with “adding” for “addition of”, “co-incubating” for “co-incubation”, “7-10” for “7”

[7] = system: HCC1937; assay: Antiproliferation, CellTiter-Glo, 5 days, HCC1937; details: HCC1937, AR− TNBC
Protocol: as §1, with “For MDA-MB-453, MFM-223, SUM159PT, MDA-MB-468, and HCC1937, 4,000, 3,000, 1,000, 3,000, and 3,000 cells were plated per well in 96-well microplates (Corning Inc), respectively. Cells” for “Cells”

[8] = system: MDA-MB-453 cells; assay: Inhibition of proliferation of MDA-MB-453 cells (CCK-8 or CTG, 7-10 days); details: for IC50: co-incubation 7-10 days, CCK-8 or CTG, read-out: IC50 values against MDA-MB-453 cells
Protocol: Triple negative breast cancer MDA-MB-453 cells in logarithmic growth stage were inoculated into a 96-well plate at a concentration of 4×10^3 cells/well, and then incubated in an incubator at 37° C., 5% CO2, and saturated humidity for 24 h or 48 h. To the negative control well, was added RPMI 1640 cell medium containing 10% fetal bovine serum in the same volume as the drug. After cultured for 24 h or 48 h, to the 96-well plate, were added AR PROTACs compounds 162, 177, 230, 259, 279, 281, 282, 325, 357, 400, ARV-110, ARV-766 and AR inhibitor HC-1119, respectively. The concentrations of compounds 177, 230, 259, 279, 281, 282, 325, 357, 400, ARV-110, and ARV-766 are 0 μM, 0.002 μM, 0.005 μM, 0.014 μM, 0.041 μM, 0.123 μM, 0.370 μM, 1.111 μM, 3.333 μM or 10 μM; while the concentrations of HC-1119 are 0 μM, 1.23 μM, 3.70 μM, 11.11 μM, 33.33 μM or 100 μM.
as §3, with “7-10” for “7”

[9] = system: MDA-MB-453 cells; assay: Combination with chemotherapeutic drug Paclitaxel, proliferation of MDA-MB-453 cells, Combination Index; details: molar ratio to Paclitaxel 20:1-5000:1, 7 days
Protocol: as §2, with “ARV-110” for “ARV-110, ARV-766”, “chemotherapeutic drug Paclitaxel,” for “PI3K inhibitor Alpelisib,”
as §3, with “adding” for “addition of”, “co-incubating” for “co-incubation”

[10] = system: MDA-MB-453 cells; assay: Combination with PI3K inhibitor Duvelisib, proliferation of MDA-MB-453 cells, Combination Index; details: molar ratio to Duvelisib 1:30-1:1.111, 7-10 days
Protocol: as §2, with “ARV-110” for “ARV-110, ARV-766”, “Duvelisib,” for “Alpelisib,”
as §3, with “adding” for “addition of”, “co-incubating” for “co-incubation”, “7-10” for “7”

[11] = system: AR+ TNBC cells (MDA-MB-453, SUM159PT and MFM-223) and AR- TNBC (MDA-MB-468 and HCC1937); assay: Antiproliferation in AR positive and negative TNBC cells (summary over the cell line panel); details: MDA-MB-453, SUM159PT, MFM-223, MDA-MB-468, HCC1937
Protocol: as §1, with “For MDA-MB-453, MFM-223, SUM159PT, MDA-MB-468, and HCC1937, 4,000, 3,000, 1,000, 3,000, and 3,000 cells were plated per well in 96-well microplates (Corning Inc), respectively. Cells” for “Cells”

Compound: N#Cc1ccc(O[C@H]2CC[C@H](NC(=O)c3ccc(N4CCC5(CCN(CC6CCN(c7cc8c(cc7F)C(=O)N(C7CCC(=O)NC7=O)C8=O)CC6)C5)C4)nn3)CC2)cc1Cl (stereo partly drawn) [Compound 162]
IC50 ([8]; Homo sapiens): > 2000 nM

Compound: N#Cc1ccc(O[C@H]2CC[C@H](NC(=O)c3cnc(N4C[C@@H]5[C@@H](CN6CCN(c7ccc8c(c7)C(=O)N(C7CCC(=O)NC7=O)C8=O)CC6)[C@@H]5C4)cn3)CC2)cc1Cl (stereo partly drawn) [Compound 177]
IC50 ([8]; Homo sapiens): > 2000 nM

Compound: N#Cc1ccc(O[C@H]2CC[C@H](NC(=O)c3ccc(N4CCC(CN5CCC6(CC5)CN(c5ccc7c(c5)C(=O)N(C5CCC(=O)NC5=O)C7=O)C6)CC4)nn3)CC2)cc1Cl (stereo partly drawn) [Compound 230]
IC50 ([8]; Homo sapiens): > 2000 nM

Compound: N#Cc1ccc(O[C@H]2CC[C@H](NC(=O)c3ccc(N4CC5CN(CC6CCN(c7cc8c(cc7F)C(=O)N(C7CCC(=O)NC7=O)C8=O)CC6)CC5C4)nn3)CC2)cc1Cl (stereo partly drawn) [Compound 259]
IC50 ([8]; Homo sapiens): > 2000 nM

Compound: N#Cc1ccc(O[C@H]2CC[C@H](NC(=O)c3ccc(N4CCC(N5CCC6(CC5)CN(c5ccc7c(c5)C(=O)N(C5CCC(=O)NC5=O)C7=O)C6)CC4)nn3)CC2)cc1Cl (stereo partly drawn) [Compound 281]
effect of the combination with Alpelisib on inhibiting proliferation (CI<1 = synergistic) [4]: synergistic effect | effect of the combination with Idelalisib on inhibiting proliferation (CI<1 = synergistic) [6]: synergistic effect | effect of the combination with Paclitaxel on inhibiting proliferation (CI<1 = synergistic) [9]: synergistic effect | IC50 ([8]; Homo sapiens): ≤ 2000 nM | effect of the combination with Duvelisib on inhibiting proliferation (CI<1 = synergistic) [10]: synergistic effect

Compound: N#Cc1ccc(O[C@H]2CC[C@H](NC(=O)c3ccc(N4CC5(CCN(CC6CCN(c7ccc8c(c7)C(=O)N(C7CCC(=O)NC7=O)C8=O)CC6)CC5)C4)nn3)CC2)cc1Cl (stereo partly drawn) [Compound 282]
effect of the combination with Alpelisib on inhibiting proliferation (CI<1 = synergistic) [4]: synergistic effect | effect of the combination with Idelalisib on inhibiting proliferation (CI<1 = synergistic) [6]: synergistic effect | effect of the combination with Paclitaxel on inhibiting proliferation (CI<1 = synergistic) [9]: synergistic effect | IC50 ([8]; Homo sapiens): ≤ 2000 nM | effect of the combination with Duvelisib on inhibiting proliferation (CI<1 = synergistic) [10]: synergistic effect

Compound: CC1(C)[C@H](Oc2ccc(C#N)c(Cl)c2)C(C)(C)[C@H]1N1Cc2nc(C#C[C@H]3CC[C@H](N4CCN(c5ccc6c(c5)C(=O)N(C5CCC(=O)NC5=O)C6=O)CC4)CC3)ccc2C1=O (stereo partly drawn) [Compound 325]
IC50 ([8]; Homo sapiens): > 2000 nM

Compound: CC1(C)[C@H](Oc2ccc(C#N)c(Cl)c2)C(C)(C)[C@@H]1N1Cc2nc(C#C[C@H]3C[C@H](N4CCN(c5cc6c(cc5F)C(=O)N(C5CCC(=O)NC5=O)C6=O)CC4)C3)ccc2C1=O (stereo partly drawn) [Compound 357]
IC50 ([8]; Homo sapiens): ≤ 2000 nM

Compound: COc1cc(O[C@H]2C(C)(C)[C@H](N3Cc4nc(C#C[C@H]5CC[C@H](N6CCN(c7ccc8c(c7)C(=O)N(C7CCC(=O)NC7=O)C8=O)CC6)CC5)ccc4C3=O)C2(C)C)ccc1C#N (stereo partly drawn) [Compound 400]
IC50 ([8]; Homo sapiens): ≤ 2000 nM

Compound: [2H]C([2H])([2H])NC(=O)c1ccc(N2C(=S)N(c3ccc(C#N)c(C(F)(F)F)c3)C(=O)C2(C)C)cc1F [HC-1119]
anti-proliferation activity in all five cell lines [11]: failed to show anti-proliferation activity | inhibitory effect on the proliferation of MDA-MB-453 cells [8]: weak inhibitory effect

The next lines start with results.

IC50 ([2]; Homo sapiens, 120 h): 1100 nM | IC50 ([5]; Homo sapiens, 120 h): > 10000 nM | IC50 ([7]; Homo sapiens, 120 h): > 10000 nM | IC50 ([8]; Homo sapiens): ≤ 2000 nM
Compound: COc1cc(O[C@H]2C(C)(C)[C@H](NC(=O)c3ccc(N4CCC(CN5CCN(c6ccc(C(=O)N[C@H]7CCC(=O)NC7=O)c(F)c6)CC5)CC4)cc3)C2(C)C)ccc1C#N [ARV-766]
IC50 ([1]; Homo sapiens, SUM-159-PT, 120 h): 380 nM | IC50 ([3]; Homo sapiens, 120 h): 5400 nM | effect of the combination with Alpelisib on inhibiting proliferation (CI<1 = synergistic) [4]: synergistic effect | effect of the combination with Idelalisib on inhibiting proliferation (CI<1 = synergistic) [6]: synergistic effect

IC50 [2]: > 10000 nM | IC50 [5]: > 10000 nM | IC50 [7]: > 10000 nM | IC50 [8]: > 2000 nM
Compound: CNC(=O)c1ccc(N2C(=S)N(c3ccc(C#N)c(C(F)(F)F)c3)C(=O)C2(C)C)cc1F [HC-1119]
IC50 [1]: > 10000 nM | IC50 [3]: > 10000 nM
